The structures appear in SMILES notation. The source made the active and inactive calls. The calls are words filed in the database; no cut-off is given here.

One assay has as its target Acetylcholinesterase (Homo sapiens, UniProt P22303).
The target of assay [1] is T1, Cholinesterase (Homo sapiens, UniProt P06276).
Description: Inhibition of human BuChE using S-butyrylthiocholine iodide as substrate preincubated for 5 mins followed by substrate addition measured for 60 to 300 secs by Ellman's method
The target of assay [2] is T2, Amyloid-beta precursor protein (Homo sapiens, UniProt P05067). Briefly: Inhibition of HFIP-induced human recombinant amyloid beta (1 to 42 residues) aggregation expressed in Escherichia coli at 25 uM measured over 24 hrs by ThT-based fluorescence spectroscopic method relative to control.
T2 sequence (P05067 whole entry, the tested form may be a part): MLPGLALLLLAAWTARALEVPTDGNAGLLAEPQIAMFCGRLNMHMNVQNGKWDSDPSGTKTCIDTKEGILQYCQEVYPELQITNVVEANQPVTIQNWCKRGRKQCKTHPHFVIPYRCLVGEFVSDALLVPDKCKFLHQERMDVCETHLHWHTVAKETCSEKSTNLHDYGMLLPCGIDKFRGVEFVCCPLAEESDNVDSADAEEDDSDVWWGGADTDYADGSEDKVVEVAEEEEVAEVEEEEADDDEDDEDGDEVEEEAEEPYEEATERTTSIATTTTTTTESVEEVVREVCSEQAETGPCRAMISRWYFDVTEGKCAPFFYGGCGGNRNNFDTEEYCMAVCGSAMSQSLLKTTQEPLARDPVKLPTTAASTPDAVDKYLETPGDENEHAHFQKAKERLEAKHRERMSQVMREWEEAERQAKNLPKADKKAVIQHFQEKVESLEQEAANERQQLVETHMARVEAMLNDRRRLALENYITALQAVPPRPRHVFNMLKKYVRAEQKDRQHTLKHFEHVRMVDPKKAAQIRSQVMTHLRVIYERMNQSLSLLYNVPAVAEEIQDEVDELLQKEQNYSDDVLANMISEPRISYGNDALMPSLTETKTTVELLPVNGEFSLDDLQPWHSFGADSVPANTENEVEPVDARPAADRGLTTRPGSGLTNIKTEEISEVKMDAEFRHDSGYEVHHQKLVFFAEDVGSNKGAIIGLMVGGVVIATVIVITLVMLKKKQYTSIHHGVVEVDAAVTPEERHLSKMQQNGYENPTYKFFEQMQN
For assay [3], the target named is T1, Cholinesterase. Put plainly: Potency index, ratio of donepezil IC50 to test compound IC50 for human BuChE.
For assay [4], the target named is T2, Amyloid-beta precursor protein.
Description: Inhibition of HFIP-induced human recombinant amyloid beta (1 to 40 residues) aggregation expressed in Escherichia coli measured over 24 hrs by ThT-based fluorescence spectroscopic method
The target is the same in assay [5]. Put plainly: Inhibition of HFIP-induced human recombinant amyloid beta (1 to 40 residues) aggregation expressed in Escherichia coli at 25 uM measured over 24 hrs by ThT-based fluorescence spectroscopic method relative to control.
Assay [6] shares this target. Put plainly: Inhibition of HFIP-induced human recombinant amyloid beta (1 to 40 residues) aggregation expressed in Escherichia coli assessed as reduction in amyloid beta fibril load measured after 24 hrs by ThT fluorescence assay.
Assay [7] shares this target. Put plainly: Potency index, ratio of curcumin IC50 to test compound IC50 for HFIP-induced human recombinant amyloid beta (1 to 42 residues) aggregation.
Assay [8] has the same target. Put plainly: Inhibition of HFIP-induced human recombinant amyloid beta (1 to 40 residues) aggregation expressed in Escherichia coli assessed as reduction in amyloid beta fibril load at 25 uM after 24 hrs by transmission electron microscopic method.
The nature of assay [9]: Antioxidant activity assessed as DPPH radical scavenging activity at 50 uM relative to control. Format: functional. In general terms: Loss of DPPH colour is used to gauge radical scavenging.
Assay [10] addresses T2, Amyloid-beta precursor protein. Put plainly: Potency index, ratio of resveratrol IC50 to test compound IC50 for HFIP-induced human recombinant amyloid beta (1 to 42 residues) aggregation.
Assay [11] has the same target. Put plainly: Potency index, ratio of curcumin IC50 to test compound IC50 for HFIP-induced human recombinant amyloid beta (1 to 40 residues) aggregation.
Assay [12] has the same target. Briefly: Inhibition of HFIP-induced human recombinant amyloid beta (1 to 42 residues) aggregation expressed in Escherichia coli assessed as reduction in amyloid beta fibril load at 25 uM after 24 hrs by transmission electron microscopic method.
For assay [13] the target is unchanged. Put plainly: Inhibition of HFIP-induced human recombinant amyloid beta (1 to 42 residues) aggregation expressed in Escherichia coli assessed as reduction in amyloid beta fibril load measured after 24 hrs by ThT fluorescence assay.
Assay [14] can be described thus: Potency index, ratio of test compound to resveratrol antioxidant activity assessed as DPPH radical scavenging activity.
Assay [15] addresses T2, Amyloid-beta precursor protein. This is another data set of the same source.
Description: Inhibition of HFIP-induced human recombinant amyloid beta (1 to 42 residues) aggregation expressed in Escherichia coli measured over 24 hrs by ThT-based fluorescence spectroscopic method

T1 sequence (P06276 whole entry, the tested form may be a part): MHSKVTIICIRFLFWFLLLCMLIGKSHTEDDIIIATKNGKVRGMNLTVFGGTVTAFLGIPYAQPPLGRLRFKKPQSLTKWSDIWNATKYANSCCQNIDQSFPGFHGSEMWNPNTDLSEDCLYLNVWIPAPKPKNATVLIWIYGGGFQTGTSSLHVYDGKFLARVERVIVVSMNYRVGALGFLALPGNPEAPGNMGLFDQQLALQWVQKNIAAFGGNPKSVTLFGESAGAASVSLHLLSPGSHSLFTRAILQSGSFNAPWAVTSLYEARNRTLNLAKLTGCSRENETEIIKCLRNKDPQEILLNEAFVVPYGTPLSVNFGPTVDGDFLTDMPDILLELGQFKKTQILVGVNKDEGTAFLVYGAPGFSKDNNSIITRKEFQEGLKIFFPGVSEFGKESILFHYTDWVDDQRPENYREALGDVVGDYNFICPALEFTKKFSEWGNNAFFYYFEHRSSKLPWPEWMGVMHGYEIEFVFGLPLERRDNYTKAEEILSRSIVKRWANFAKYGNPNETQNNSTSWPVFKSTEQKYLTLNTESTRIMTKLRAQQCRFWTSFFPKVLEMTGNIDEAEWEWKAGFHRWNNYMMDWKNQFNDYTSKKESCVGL
Sequence of Acetylcholinesterase (P22303 whole entry): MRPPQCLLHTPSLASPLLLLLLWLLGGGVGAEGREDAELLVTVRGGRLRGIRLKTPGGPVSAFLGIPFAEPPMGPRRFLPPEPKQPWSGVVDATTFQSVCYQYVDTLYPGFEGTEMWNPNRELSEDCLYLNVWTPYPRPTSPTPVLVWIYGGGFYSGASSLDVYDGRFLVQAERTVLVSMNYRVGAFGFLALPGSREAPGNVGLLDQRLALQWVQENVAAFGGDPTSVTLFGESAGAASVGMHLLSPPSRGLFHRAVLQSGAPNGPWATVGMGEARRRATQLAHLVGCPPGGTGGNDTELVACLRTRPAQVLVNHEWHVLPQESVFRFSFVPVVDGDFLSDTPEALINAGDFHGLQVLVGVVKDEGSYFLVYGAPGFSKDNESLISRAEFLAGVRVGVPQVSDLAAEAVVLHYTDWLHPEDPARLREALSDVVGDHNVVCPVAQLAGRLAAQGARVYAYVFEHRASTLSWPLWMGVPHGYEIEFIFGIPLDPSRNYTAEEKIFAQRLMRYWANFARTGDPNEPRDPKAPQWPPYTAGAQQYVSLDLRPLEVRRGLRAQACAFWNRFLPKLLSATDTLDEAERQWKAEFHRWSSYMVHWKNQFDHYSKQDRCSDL
Description for Acetylcholinesterase: Inhibition of human AChE using acetylthiocholine iodide as substrate preincubated for 5 mins followed by substrate addition measured for 60 to 300 secs by Ellman's method

The term IC50 denotes the concentration needed to halve the response being measured. Low readings indicate greater potency in that assay, high ones weaker potency in that assay. As a reminder, the inhibition is the drop in the measured response relative to a control, in per cent. As to `CC(C)Nc1nc(NCCc2ccccc2)c2ccccc2n1`, the IC50 against Acetylcholinesterase was determined as 7.2 µM; on Cholinesterase [1], 1.6 µM; in [4] it was 3.8 µM. Moreover, the inhibition entry in [2] was “inactive”. At Cholinesterase [3], the Ratio IC50 is 2.3. Moreover, the inhibition in assay [5] is greater than 50%.

In the case of `Oc1nc(NCc2ccccc2)c2ccccc2n1`, the results for the inhibition result in [6], in assay [2] and in assay [5] were “Dose-dependent effect”, 24% and greater than 50%, respectively. Also, the Ratio IC50 came to 12 in [7] and 4 in assay [10]. The inhibition entry in assay [8] is “Active”. In addition, the Activity in assay [9] came to 47%. In addition, half-maximal inhibition in assay [4] (IC50) was put at 0.27 µM.

As for `Nc1nc(NCc2ccccc2)nc2ccccc12`, the Ratio IC50 is 1.2 to 1.4 in assay [11] and 1.8 in [10]. In addition, the inhibition result in assay [12] was “Active”. In addition, the values for the inhibition entry in [13] and in assay [5] were “Dose-dependent effect” and greater than 50%, respectively.

Turning to `c1ccc(CCNc2nc(NC3CC3)nc3ccccc23)cc1`, the inhibition entry in assay [6] is “Dose-dependent effect”; in [2] it was 22%; in assay [5] it was greater than 50%. In assay [11], the Ratio IC50 turned out to be 4.1. In addition, the values for the IC50 (against Acetylcholinesterase; on Cholinesterase [1]; in assay [4]) were 8.6 µM, 11.4 µM and 0.79 µM, respectively. The inhibition entry in assay [8] is “Active”.

As for `Nc1nc(NCCc2ccccc2)nc2ccccc12`, the inhibition entry in assay [12] is “Active”. Besides, the figures for the inhibition in [2], in assay [13] and in [5] were 50%, “Dose-dependent effect” and greater than 50%, respectively. In addition, the Ratio IC50 at Cholinesterase [3] came out at 1.5.

On to `COc1ccc(CNc2nc(O)nc3ccccc23)cc1OC`, for which, in assay [14], the Ratio stood at 1.5. Also, the inhibition was less than 10% in assay [2] and greater than 50% in assay [5]. For the same compound, the Activity in [9] was determined as 63.4%. This compound also came in with an IC50 in [4] of 7.8 µM.

In the case of `COc1ccc(CCNc2nc(Cl)nc3ccccc23)cc1OC`, the inhibition result in assay [12] is “Active”. Also, the inhibition entry in [13] was “Dose-dependent effect”; in assay [5], greater than 50%. Further, the concentration for half-maximal inhibition (IC50) in assay [15] came out at 13 µM; in assay [4] it was 8.2 µM.
